Tests used:
[1] = tested on: LPS-induced cytokines (TNF-α, IL-6, IL-10, IL-13) in plasma and cerebral cortex; assay: Systemic and brain LPS anti-inflammatory study in rats; assay type: in vivo; settings: rat, 4 h
Experimental: They were administered, via the intraperitoneal (I.P.) route, nano-formulated 3-MP at a dose of 13.25 or 26.5 mg/kg (equimolar to a clinically translatable dose of 12.5 and 25 mg/kg thalidomide), vehicle or pomalidomide (25 mg/kg). One hour later, animals were administered either LPS (1 mg/kg, E.Coli 055:B5, Sigma Aldrich, in normal saline, 0.5 mg/mL) or an alike volume of saline (without LPS) via the I.P. route. The LPS dose was selected from prior pilot studies to provide a substantial but sub-maximal rise in plasma proinflammatory cytokine levels, in line with our prior research. The selected 3-MP and pomalidomide doses were chosen as they are equimolar to, or are less than, doses of thalidomide and analogues that have been verified to be well tolerated in our previous studies and are of translational relevance to humans. Four hours after LPS administration, the animals were euthanized, and blood and brain tissues were collected and placed on wet ice. Plasma was quickly separated from blood by centrifugation (10,000 × g, 5 min, 4 °C) and together with the brain samples (cerebral cortex) was stored at − 80 °C. At a later time, cerebral cortex samples were sonicated in a TRIS-based lysis buffer (Mesoscale Discovery) with 3 × protease/phosphatase inhibitors (Halt™ Protease and Phosphatase Inhibitor Cocktail, Thermo Fisher Scientific, Waltham, MA, USA). Samples were then centrifuged (10,000 × g, 5 min, 4 °C), supernatant separated, and protein concentrations were quantified by bicinchoninic acid assay (BCA, Thermo Fisher Scientific). Rat plasma and cerebral cortex samples were analyzed by multi-proinflammatory cytokine ELISA (V-PLEX Proinflammatory Panel 2 Rat Kit, Mesoscale Discovery) following the manufacturer’s protocol to quantify TNF-α, IL-6, IL-10, and IL-13 levels.

[2] = Ex vivo plasma stability, human; assay type: in vitro ADME; settings: 100 μg/ml, 37 °C, 180 min
Experimental: Ex vivo evaluations of drug plasma and liver microsomal time-dependent breakdown are routinely undertaken to initially characterize the metabolic stability of new pharmacological compounds and were performed by WuXi AppTec (Shanghai, China; Study No. 424847–20,211,214-MMS). Rat and human plasma and liver microsomes were purchased from Xenotech (Sprague Dawley rat, Catalog no. R1000; BioIVT, Westbury, NY) or Corning (mixed human, Catalog no. 452117; Sigma). Rat and human plasma was incubated at 37 °C on a shaker and spiked with 3-MP (100 μg/ml, n = 3). Thereafter, samples were time-dependently (0 to 180 min) removed, immediately frozen (− 80 °C), and subjected to LC–MS/MS analysis at a later time.

[3] = 3-MP nanosuspension time-dependent stability (LC-MS); assay type: physicochemical
Experimental: Thalidomide, pomalidomide, and most related analogues have poor aqueous solubility. As a consequence, to aid biological evaluation, a 3-MP nanosuspension was prepared in line with our prior study. Specifically, the drug was mixed in an aqueous solution (Tween 80/water) and vortexed for 10 min. The coarse drug suspension was then placed in Eppendorf microtubes containing approximately 0.4 g of 0.1–0.2 mm yttrium-stabilized zirconia-silica beads (Silibeads® Typ ZY Sigmund Lindner, Germany). These were vortexed twice, at 3000 rpm for 45 min, using a beads-milling cell disruptor (Disruptor Genie®, Scientific Industries, USA). […] To evaluate the stability of the 3-MP nanosuspension, a vial (241 μM, 4 °C) was time-dependently sampled over a 98-day period, and the drug was quantified by LC–MS (see Supplementary information). […]
Nanoformulation LC/MS Assays: A rudimentary assay was devised to assess the relative stability of nanoformulated 3-MP. In short, a sample of nanoformulated 3-MP was monitored for degradation until, roughly, 10% of the original material was lost due to hydrolysis and other such factors. […] These samples were immediately analyzed. […] The areas of the ensuing UV peaks detected at 254nm served as the basis for analysis, and the stock nanoformulation was monitored as a function of derivation from the 3-MP nanoformulation t=0 area (defined as “100% Area Percent” in the initial trace). […]

[4] = human, 1 μM
in vitro = settings: Sprague Dawley, rat, microsomes
[5] = 13.25 and 26.5 mg/kg I.P. 1 h before LPS 1 mg/kg I.P.

For `Nc1cccc2c1C(=S)N(C1CCC(=O)NC1=O)C2=O` (stereo not drawn) [3-MP, 3-Monothiopomalidomide], the “LPS-mediated reduction in plasma IL-13” value ([1]; 3-MP both doses I.P., LPS 1 mg/kg) was “abated”, the “LPS-mediated elevations in brain IL-13” value ([1]; 3-MP both doses and pomalidomide I.P., LPS 1 mg/kg) was “maintained” and the “decline in IL-6 brain levels” value ([1]; 3-MP low dose 13.25 mg/kg I.P., pomalidomide 25 mg/kg I.P., LPS 1 mg/kg) was “failed to achieve statistical significance”. The “LPS-induced rise in plasma IL-6” value [1, 5] was “reduced”, the “LPS-induced rise in plasma TNF-α” value [1, 5] was “reduced” and the “IL-10 elevation induced by LPS in plasma or brain” value ([1]; high- or low-dose 3-MP or pomalidomide I.P., LPS 1 mg/kg) was “not lessened”. The “stability in human plasma” value [2] was “relatively stable”, the “area of the 3-MP peak, relative intensity” value ([3]; nanoformulated 3-MP stock stored in the dark at 4 °C, t=98 days, UV 254 nm, relative to t=0) was “below 90%” and the “stability of 3-MP nanosuspension” value ([3]; nanosuspension in Tween-80/water, 241 μM, 4 °C, 98-day period, LC–MS/MS) was “time-dependently stable”. The “reduction of 3-MP levels following 60-min incubation” value ([4]; 60 min) was 8.2%, the “Remaining (NCF = 60 min)” value ([4]; microsomes, 1 h) was 115.3% and the “Remaining (T = 60 min)” value ([4]; microsomes, 1 h) was 91.8%. The CLint scaled at 1 μM (in vitro) was less than 17.3 mL/min/kg, the half-life at 1 μM (in vitro) was greater than 2.42 h and the microsomal CLint at 1 μM (in vitro) was less than 9.6 µL/min/mg.

Reference: article PMC12397098, “3-Monothiopomalidomide, a new immunomodulatory imide drug (IMiD), blunts inflammation and mitigates ischemic stroke in the rat” (GeroScience, 2025)
